pIC50: −log10 of the molar value.
What follows are compounds tested against T1, human IDO1 (Homo sapiens, UniProt P14902) (assay: Assessment of human IDO-1 inhibitory activity in HEK cells (human IDO1/HEK293 cells, kynurenine read-out with Ehrlich reagent, absorbance 490 nm)). Conditions: HEK Human IDO-1 cellular assay.
Assay type: cell-based
Parameters: expressed in transfected cells
Method in brief: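 HEK293 cells stably expressing human IDO1 were seeded at 10,000 per well in phenol red-free RPMI with 10% FBS, treated with compound for 20 h at 37 °C. Kynurenine was measured after TCA (0.2% final) and 30 min at 50 °C, using Ehrlich reagent, A490. IC50 normalised to DMSO (0%) and 500 nM reference standard (100%).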

T1 sequence (P14902 whole entry): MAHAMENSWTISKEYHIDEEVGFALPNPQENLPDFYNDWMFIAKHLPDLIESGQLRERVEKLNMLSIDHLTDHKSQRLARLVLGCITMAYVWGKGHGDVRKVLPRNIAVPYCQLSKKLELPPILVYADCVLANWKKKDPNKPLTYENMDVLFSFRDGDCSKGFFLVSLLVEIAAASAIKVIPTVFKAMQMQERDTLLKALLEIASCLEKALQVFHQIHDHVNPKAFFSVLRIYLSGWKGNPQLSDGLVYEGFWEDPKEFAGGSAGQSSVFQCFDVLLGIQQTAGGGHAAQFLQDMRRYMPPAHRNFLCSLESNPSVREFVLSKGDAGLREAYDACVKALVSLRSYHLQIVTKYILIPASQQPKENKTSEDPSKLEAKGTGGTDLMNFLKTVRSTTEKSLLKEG

Row | pIC50 | Compound
1 | < 7.30 | CCOc1ncc(Nc2cc(C(C)(C)CC(=O)O)ccc2N2C[C@@H](C)O[C@@H](C)C2)cn1 [Example 736, 3-(4-((2S,6R)-2,6-dimethylmorpholino)-3-((2-ethoxypyrimidin-5-yl)amino)phenyl)-3-methylbutanoic acid]
2 | < 7.30 | CC(C)(CC(=O)O)c1ccc(N2CCC[C@H]2C(C)(C)O)c(Nc2ccc(F)cc2)c1 [Example 807, (S)-3-(3-((4-Fluorophenyl)amino)-4-(2-(2-hydroxypropan-2-yl)pyrrolidin-1-yl)phenyl)-3-methylbutanoic acid]
3 | > 7.30 | CC(C)(CC(=O)O)c1ccc(N2CCC[C@H]2C(C)(C)O)c(Nc2ccc(Cl)cc2)c1 [Example 808, (S)-3-(3-((4-chlorophenyl)amino)-4-(2-(2-hydroxypropan-2-yl)pyrrolidin-1-yl)phenyl)-3-methylbutanoic acid]
4 | > 7.30 | CC(C)(CC(=O)O)c1ccc(N2CCC[C@H]2C(C)(C)O)c(Nc2ccc(C#N)cc2)c1 [Example 809, (S)-3-(3-((4-cyanophenyl)amino)-4-(2-(2-hydroxypropan-2-yl)pyrrolidin-1-yl)phenyl)-3-methylbutanoic acid]
5 | > 7.30 | COC(Cc1ccc(N(CC(C)C)C2CCCCC2)c(NC(=O)Nc2ccc(Cl)cc2F)c1)C(=O)O (stereo not shown) [Example 1012, 3-(3-(3-(4-Chloro-2-fluorophenyl)ureido)-4-(cyclohexyl(isobutyl)amino)phenyl)-2-methoxypropanoic acid]
6 | > 7.30 | CCOc1ncc(Nc2cc([C@H](CC)CC(=O)NS(C)(=O)=O)ccc2N(CC)C2CCOCC2)cn1 [Example 1078, 3-(3-((2-Ethoxypyrimidin-5-yl)amino)-4-(ethyl(tetrahydro-2H-pyran-4-yl)amino)phenyl)-N-(methylsulfonyl)pentanamide]
7 | > 8.30 | COCC(CC(=O)O)c1cc(F)c(N(CC(C)C)C2CCCCC2)c(NC(=O)Nc2ccc(OC)cc2F)c1 (stereo not shown) [Example 1159, 3-(4-(cyclohexyl(isobutyl)amino)-3-fluoro-5-(3-(2-fluoro-4-methoxyphenyl)ureido)phenyl)-4-methoxybutanoic acid]

The next lines start with the compound.

Row | Compound | pIC50
8 | C[C@@H]1CN(c2ccc(C(C)(C)CC(=O)O)cc2Nc2ccc(Cl)cc2)C[C@H](C)O1 [Example 733, 3-(3-((4-chlorophenyl)amino)-4-((2S,6R)-2,6-dimethylmorpholino)phenyl)-3-methylbutanoic acid] | > 7.30
9 | CCc1ccc(Nc2cc(C(C)(C)CC(=O)O)ccc2N2C[C@@H](C)O[C@@H](C)C2)cc1 [Example 734, 3-(4-((2S,6R)-2,6-dimethylmorpholino)-3-((4-ethylphenyl)amino)phenyl)-3-methylbutanoic acid] | < 7.30
10 | COc1ncc(Nc2cc(C(C)(C)CC(=O)O)ccc2N2C[C@@H](C)O[C@@H](C)C2)cn1 [Example 735, 3-(4-((2S,6R)-2,6-dimethylmorpholino)-3-((2-methoxypyrimidin-5-yl)amino)phenyl)-3-methylbutanoic acid] | < 7.30

These compounds were tested against T1, human IDO1 (assay: Assessment of human IDO-1 inhibitory activity in Hela cells (Interferon-gamma stimulated HeLa cells, Ehrlich reagent, absorbance 490 nm)). Conditions: Hela Human IDO-1 cellular assay.
Assay type: cell-based
Parameters: endogenous in cells; host or cells: HeLa cells stimulated with interferon-gamma
Procedure: Exemplary compounds were tested for inhibition of IDO activity.
Assessment of Human IDO-1 Inhibitory Activity in Hela Cells
HeLa cells were seeded at 20,000 cells per 30 μL per well with RPMI/phenol red free media containing 10% FBS in a 384-well tissue culture plate (black with clear bottoms). 50 nL of compound was added to cells and incubated at 37° C. for one hour. 20 μL of the recombinant human Interferon-gamma (R&D System, Cat. #285-IF, at final concentration of 10 ng/ml) or recombinant murine Interferon-gamma (PEPROTECH® Inc., Cat. #315-05, final concentration of 5 ng/ml) was added to activate IDO signaling. The cells were incubated for 18 hours in 37° C. incubator with 5% CO2.
Compound treatment was stopped by adding 5 μl trichloroacetic acid to a final concentration of 3%. Subsequently, the cell plate was further incubated at 50° C. for 30 minute. An equal volume supernatant (20 μL) and 2% (w/v) Ehrlich reagent (4-dimethylaminobenzaldehyde) in glacial acetic acid were mixed in a new clear bottom 384-well plate. This plate was incubated at room temperature for 30 minutes. Absorbance at 490 nm was measured on Envision plate reader.
Compound IC50 values were calculated using counts from unstimulated (no INF-gamma treatment) wells as 100% inhibition. INF-gamma treatment without compound treatment as 0% inhibition.

Row | pIC50 | Compound
11 | > 8.30 | CCOc1ncc(Nc2cc(C(CC)CC(=O)O)cnc2N(CC(C)C)CC(C)C)cn1 (racemic) [Example 1376, (+/−)-3-(6-(Diisobutylamino)-5-((2-ethoxypyrimidin-5-yl)amino)pyridin-3-yl)pentanoic acid]
12 | > 7.30 | CCC(CC(=O)O)c1cnc(N(CC)C2CCOCC2)c(NC(=O)Nc2ccc(C)cc2)c1 (racemic) [Example 1377, (+/−)-3-(6-(Ethyl(tetrahydro-2H-pyran-4-yl)amino)-5-(3-(p-tolyl)ureido)pyridin-3-yl)pentanoic acid]
13 | > 8.30 | CCOc1ncc(Nc2cc(C(CC)CC(=O)O)cnc2N(CC)C2CCOCC2)cn1 (racemic) [Example 1378]
14 | > 8.30 | CCC(CC(=O)O)c1cnc(N(CC)C2CCOCC2)c(Nc2ccc(C#N)cc2)c1 (racemic) [Example 1379]
15 | > 8.30 | CCC(CC(=O)O)c1cnc(N(CC)C2CCOCC2)c(Nc2ccc(Cl)cc2)c1 (racemic) [Example 1380]

Continued, compound first:

Row | Compound | pIC50
16 | 3-(4-((1,1-dioxidotetrahydro-2H- thiopyran-4-yl)(ethyl)amino)-3- ((4-fluorophenyl)amino)phenyl)- 4-isopropoxybutanoic acid [Example 340] | > 7.30
17 | COCC(CC(=O)O)c1ccc(N2C[C@@H](C)O[C@@H](C)C2)c(Nc2ccc(C#N)cc2)c1 (single isomer, unassigned) [602 E1] | < 7.30
18 | CCC(CC(=O)O)c1ccc(N(CC)C2CCOC2)c(NC(=O)Nc2ccc(Cl)cc2F)c1 (single isomer, unassigned) [948 D2] | > 7.30
19 | CCC(CC(=O)O)c1ccc(N2CCOCC2)c(Nc2ccc(C#N)cc2)c1 (single isomer, unassigned) [Example 6 Enantiomer 1, 3-(3-((4-Cyanophenyl)amino)-4-morpholinophenyl)pentanoic acid] | < 7.30
20 | CCC(CC(=O)O)c1ccc(N2CCOCC2)c(Nc2ccc(C#N)cc2)c1 (single isomer, unassigned) [Example 6 Enantiomer 2, 3-(3-((4-Cyanophenyl)amino)-4-morpholinophenyl)pentanoic acid] | > 7.30
21 | CCOc1ncc(Nc2cc(C(CC)CC(=O)O)ccc2N2CCOCC2)cn1 (single isomer, unassigned) [Example 7 Enantiomer 2, 3-(3-((2-Ethoxypyrimidin-5-yl)amino)-4-morpholinophenyl)pentanoic acid] | < 7.30
22 | CCC(CC(=O)O)c1ccc(N2CCOCC2)c(NC(=O)Nc2ccc(C)cc2)c1 (single isomer, unassigned) [Example 8 Enantiomer 1, 3-(4-Morpholino-3-(3-(p-tolyl)ureido)phenyl)pentanoic acid] | < 7.30
23 | CCC(CC(=O)O)c1ccc(N2CCOCC2)c(NC(=O)Nc2ccc(C)cc2)c1 (single isomer, unassigned) [Example 8 Enantiomer 2, 3-(4-Morpholino-3-(3-(p-tolyl)ureido)phenyl)pentanoic acid] | > 7.30
24 | CCCN(c1ccc(C(CC)CC(=O)O)cc1Nc1ccc(C#N)cc1)C1CCS(=O)(=O)CC1 (single isomer, unassigned) [Example 12 Enantiomer 1, 3-(3-((4-Cyanophenyl)amino)-4-((1,1-dioxidotetrahydro-2H-thiopyran-4-yl)(propyl)amino)phenyl)pentanoic acid] | > 8.30
25 | CCCN(c1ccc(C(CC)CC(=O)O)cc1Nc1cnc(OCC)nc1)C1CCS(=O)(=O)CC1 (single isomer, unassigned) [Example 13 Enantiomer 1, 3-(4-((1,1-Dioxidotetrahydro-2h-thiopyran-4-yl)(propyl)amino)-3-((2-ethoxypyrimidin-5-yl)amino)phenyl)pentanoic acid] | > 7.30
26 | CCCN(c1ccc(C(CC)CC(=O)O)cc1NC(=O)Nc1ccc(C)cc1)C1CCS(=O)(=O)CC1 (single isomer, unassigned) [Example 14 Enantiomer 1, 3-(4-((1,1-Dioxidotetrahydro-2h-thiopyran-4-yl)(propyl)amino)-3-(3-(p-tolyl)ureido)phenyl)pentanoic acid] | < 7.30
27 | CCN(c1ccc(C(CC(=O)O)C2CC2)cc1Nc1ccc(Cl)cc1)C1CCOCC1 (single isomer, unassigned) [Example 33 Enantiomer 1, 3-(3-((4-Chlorophenyl)amino)-4-(ethyl(tetrahydro-2H-pyran-4-yl)amino)phenyl)-3-cyclopropylpropanoic acid] | > 8.30
28 | CCN(c1ccc(C(CC(=O)O)C2CC2)cc1Nc1ccc(C#N)cc1)C1CCOCC1 (single isomer, unassigned) [Example 34, 3-(3-((4-cyanophenyl)amino)-4-(ethyl(tetrahydro-2H-pyran-4-yl)amino)phenyl)-3-cyclopropylpropanoic acid] | > 8.30
29 | CCN(c1ccc(C(CC(=O)O)C2CC2)cc1Nc1cnc(OC)nc1)C1CCOCC1 (single isomer, unassigned) [Example 35, 3-cyclopropyl-3-(4-(ethyl(tetrahydro-2H-pyran-4-yl)amino)-3-((2-methoxypyrimidin-5-yl)amino)phenyl)propanoic acid] | > 7.30
30 | CCOc1ncc(Nc2cc(C(CC(=O)O)C3CC3)ccc2N(CC)C2CCOCC2)cn1 (single isomer, unassigned) [Example 36, 3-cyclopropyl-3-(3-((2-ethoxypyrimidin-5-yl)amino)-4-(ethyl(tetrahydro-2H-pyran-4-yl)amino)phenyl)propanoic acid] | > 7.30
31 | CCN(c1ccc(C(CC(=O)O)C2CC2)cc1NC(=O)Nc1ccc(C)cc1)C1CCOCC1 (single isomer, unassigned) [Example 40 Enantiomer 1, 3-Cyclopropyl-3-(4-(ethyl(tetrahydro-2H-pyran-4-yl)amino)-3-(3-(p-tolyl)ureido)phenyl)propanoic acid] | > 8.30

From patent US9790169B2, “IDO inhibitors” (BRISTOL-MYERS SQUIBB COMPANY, priority 2015, dated 2017)
